From patent publication US20240360178A1, “MACROCYCLIC IMMUNOMODULATORS” (Bristol-Myers Squibb Company, priority 2021, published 2024)
Positions of bridges follow the written chain, without caps; N, C: chain ends. Non-standard residues stand in square brackets, D forms with d. Residues, ends and D or L forms follow the SMILES beside them. Tyr(3,5-Br2) = N[C@@H](Cc1cc(Br)c(O)c(Br)c1)C(=O)O; Bip = N[C@@H](Cc1ccc(-c2ccccc2)cc1)C(=O)O; 1Nal = N[C@@H](Cc1cccc2ccccc12)C(=O)O; NMeF = CN[C@@H](Cc1ccccc1)C(=O)O; 3Pal = N[C@@H](Cc1cccnc1)C(=O)O; Cha = N[C@@H](CC1CCCCC1)C(=O)O; NMeA = CN[C@@H](C)C(=O)O; Nle = CCCC[C@H](N)C(=O)O; Sar = CNCC(=O)O

The compounds below were run against T1, human PD-1 (Jurkat-PD-1 cells) / PE-labeled human PD-L1-Ig (Homo sapiens, UniProt Q15116) (assay: Jurkat-PD-1 Cell Binding High-Content Screening Assay (CBA); Jurkat hPD1-PDL1 assay). Details: Jurkat cell line over-expressing human PD-1; PE-labeled PD-L1-Ig 20 nM final; compound incubated 2 hours at 37° C.; read-out: Jurkat HPD1-PDL1 IC50.
T1 construct: expressed in transfected cells; host or cells: Jurkat cell line over-expressing human PD-1
Outline: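 Binding of phycoerythrin-conjugated PD-L1-Ig (20 nM final) to PD-1-overexpressing Jurkat cells was read by high-content imaging. Cells in DMEM/10% FCS were exposed to compound for 2 hours at 37° C before labeled ligand was added.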

T1 sequence (Q15116 25-288): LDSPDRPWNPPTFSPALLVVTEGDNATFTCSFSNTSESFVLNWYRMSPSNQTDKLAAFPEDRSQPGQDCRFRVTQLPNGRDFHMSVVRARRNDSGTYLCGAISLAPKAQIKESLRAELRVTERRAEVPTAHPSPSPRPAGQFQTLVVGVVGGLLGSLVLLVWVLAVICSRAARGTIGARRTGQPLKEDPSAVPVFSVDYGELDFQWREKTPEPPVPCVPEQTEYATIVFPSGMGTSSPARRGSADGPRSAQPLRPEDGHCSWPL

IC50 | SMILES
350 nM | CC(C)C[C@@H]1NC(=O)[C@H](Cc2c[nH]c3ccccc23)NC(=O)[C@H](CC(=O)O)NC(=O)[C@H](Cc2ccc(O)cc2)NC(=O)[C@H](Cc2ccccc2)NC(=O)CSC[C@@H](C(=O)NCC(N)=O)NC(=O)[C@H](C)NC(=O)[C@H](C(C)C)NC(=O)[C@H](CC(C)C)NC(=O)[C@H](CC(N)=O)NC(=O)CN(C)C(=O)[C@H](C)N(C)C(=O)[C@H](C(C)C)NC(=O)[C@H](Cc2ccc(-c3ccccc3)cc2)NC1=O [Example 1110] ({CH2CO}-FYDWL[Bip]V[NMeA][Sar]NLVACG-NH2; thioether N-14)
350 nM | CC(C)C[C@@H]1NC(=O)[C@H](CC(N)=O)NC(=O)CN(C)C(=O)[C@H](C)N(C)C(=O)[C@H](C(C)C)NC(=O)[C@H](Cc2ccc(-c3ccccc3)cc2)NC(=O)[C@H](CC(C)C)NC(=O)[C@H](Cc2c[nH]c3ccccc23)NC(=O)[C@H](CC(=O)O)NC(=O)[C@H](Cc2ccc(O)cc2)NC(=O)[C@H](Cc2ccccc2)NC(=O)CSC[C@@H](C(=O)NCC(N)=O)NC(=O)[C@H](CO)NC(=O)[C@H](C)NC1=O [Example 1111] ({CH2CO}-FYDWL[Bip]V[NMeA][Sar]NLASCG-NH2; thioether N-14)
370 nM | CC(C)C[C@@H]1NC(=O)[C@H](CC(N)=O)NC(=O)[C@H](Cc2ccccc2)N(C)C(=O)[C@H](C)N(C)C(=O)[C@H](C(C)C)NC(=O)[C@H](Cc2ccc(-c3ccccc3)cc2)NC(=O)[C@H](C(C)C)NC(=O)[C@H](Cc2c[nH]c3ccccc23)NC(=O)[C@H](CC(=O)O)NC(=O)[C@H](Cc2ccc(O)cc2)NC(=O)[C@H](Cc2ccccc2)NC(=O)CSC[C@@H](C(=O)N[C@@H](C)C(N)=O)NC(=O)[C@H](CO)NC(=O)[C@H](C(C)C)NC1=O [Example 1112] ({CH2CO}-FYDWV[Bip]V[NMeA][NMeF]NLVSCA-NH2; thioether N-14)
370 nM | CC(C)C[C@@H]1NC(=O)[C@H](Cc2c[nH]c3ccccc23)NC(=O)[C@H](CC(=O)O)NC(=O)[C@H](Cc2cc(Br)c(O)c(Br)c2)NC(=O)[C@H](Cc2ccccc2)NC(=O)CSC[C@@H](C(=O)N[C@@H](C)C(N)=O)NC(=O)[C@H](CO)NC(=O)[C@H](C(C)C)NC(=O)[C@H](CC(C)C)NC(=O)[C@H](CC(N)=O)NC(=O)CN(C)C(=O)[C@H](C)N(C)C(=O)[C@H](C(C)C)NC(=O)[C@H](Cc2ccc(-c3ccccc3)cc2)NC1=O [Example 1113] ({CH2CO}-F[Tyr(3,5-Br2)]DWL[Bip]V[NMeA][Sar]NLVSCA-NH2; thioether N-14)
400 nM | CC(C)C[C@@H]1NC(=O)[C@H](CCCNC(=N)N)NC(=O)[C@H](Cc2ccccc2)N(C)C(=O)[C@H](C)N(C)C(=O)[C@H](C(C)C)NC(=O)[C@H](Cc2ccc(-c3ccccc3)cc2)NC(=O)[C@H](C(C)C)NC(=O)[C@H](Cc2c[nH]c3ccccc23)NC(=O)[C@H](CC(=O)O)NC(=O)[C@H](Cc2ccc(O)cc2)NC(=O)[C@H](Cc2ccccc2)NC(=O)CSC[C@@H](C(=O)N[C@@H](C)C(N)=O)NC(=O)[C@H](CO)NC(=O)[C@H](C(C)C)NC1=O [Example 1115] ({CH2CO}-FYDWV[Bip]V[NMeA][NMeF]RLVSCA-NH2; thioether N-14)
400 nM | CC(C)C[C@@H]1NC(=O)[C@H](Cc2cccc3ccccc23)NC(=O)[C@H](CC(=O)O)NC(=O)[C@H](Cc2ccc(O)cc2)NC(=O)[C@H](Cc2ccccc2)NC(=O)CSC[C@@H](C(=O)N[C@@H](C)C(N)=O)NC(=O)[C@H](CO)NC(=O)[C@H](C(C)C)NC(=O)[C@H](CC(C)C)NC(=O)[C@H](CC(N)=O)NC(=O)CN(C)C(=O)[C@H](C)N(C)C(=O)[C@H](C(C)C)NC(=O)[C@H](Cc2ccc(-c3ccccc3)cc2)NC1=O [Example 1116] ({CH2CO}-FYD[1Nal]L[Bip]V[NMeA][Sar]NLVSCA-NH2; thioether N-14)
410 nM | CC(C)C[C@@H]1NC(=O)[C@H](Cc2c[nH]c3ccccc23)NC(=O)[C@H](CC(=O)O)NC(=O)[C@H](Cc2ccc(O)cc2)NC(=O)[C@H](CC2CCCCC2)NC(=O)CSC[C@@H](C(=O)NCC(N)=O)NC(=O)[C@H](CO)NC(=O)[C@H](C(C)C)NC(=O)[C@H](CC(C)C)NC(=O)[C@H](CC(N)=O)NC(=O)CN(C)C(=O)[C@H](C)N(C)C(=O)[C@H](C(C)C)NC(=O)[C@H](Cc2ccc(-c3ccccc3)cc2)NC1=O [Example 1117] ({CH2CO}-[Cha]YDWL[Bip]V[NMeA][Sar]NLVSCG-NH2; thioether N-14)
420 nM | CC(C)C[C@@H]1NC(=O)[C@H](Cc2c[nH]c3ccccc23)NC(=O)[C@H](CC(=O)O)NC(=O)[C@H](Cc2ccc(O)cc2)NC(=O)[C@H](Cc2cccnc2)NC(=O)CSC[C@@H](C(=O)NCC(N)=O)NC(=O)[C@H](CO)NC(=O)[C@H](C(C)C)NC(=O)[C@H](CC(C)C)NC(=O)[C@H](CC(N)=O)NC(=O)CN(C)C(=O)[C@H](C)N(C)C(=O)[C@H](C(C)C)NC(=O)[C@H](Cc2ccc(-c3ccccc3)cc2)NC1=O [Example 1118] ({CH2CO}-[3Pal]YDWL[Bip]V[NMeA][Sar]NLVSCG-NH2; thioether N-14)
420 nM | CC(C)C[C@@H]1NC(=O)[C@H](Cc2c[nH]c3ccccc23)NC(=O)[C@H](CC(=O)O)NC(=O)[C@H](Cc2ccc(O)cc2)NC(=O)[C@H](Cc2ccccc2)NC(=O)CSC[C@@H](C(=O)N[C@@H](C)C(N)=O)NC(=O)[C@H](CO)NC(=O)[C@H](C(C)C)NC(=O)[C@H](CC(C)C)NC(=O)[C@H](CC(N)=O)NC(=O)CN(C)C(=O)[C@H](C)N(C)C(=O)[C@H](CCC(=O)O)NC(=O)[C@H](Cc2ccc(-c3ccccc3)cc2)NC1=O [Example 1119] ({CH2CO}-FYDWL[Bip]E[NMeA][Sar]NLVSCA-NH2; thioether N-14)
430 nM | CC(C)C[C@@H]1NC(=O)[C@H](Cc2c[nH]c3ccccc23)NC(=O)[C@H](CC(=O)O)NC(=O)[C@H](Cc2ccc(O)cc2)NC(=O)[C@H](Cc2ccccc2)NC(=O)CSC[C@@H](C(=O)NCC(N)=O)NC(=O)[C@H](CO)NC(=O)[C@H](C(C)C)NC(=O)[C@H](CC(C)C)NC(=O)[C@H](CC(N)=O)NC(=O)[C@H](C)N(C)C(=O)[C@H](C)N(C)C(=O)[C@H](C(C)C)NC(=O)[C@H](Cc2ccc(-c3ccccc3)cc2)NC1=O [Example 1120] ({CH2CO}-FYDWL[Bip]V[NMeA][NMeA]NLVSCG-NH2; thioether N-14)
430 nM | CCCC[C@@H]1NC(=O)[C@H](CC(N)=O)NC(=O)[C@H]2CCCN2C(=O)[C@H](C)N(C)C(=O)[C@H](C(C)C)NC(=O)[C@H](Cc2ccc(-c3ccccc3)cc2)NC(=O)[C@H](CC(C)C)NC(=O)[C@H](Cc2c[nH]c3ccccc23)NC(=O)[C@H](CC(=O)O)NC(=O)[C@H](Cc2ccc(O)cc2)NC(=O)[C@H](Cc2ccccc2)NC(=O)CSC[C@@H](C(=O)N[C@@H](C)C(N)=O)NC(=O)[C@H]([C@@H](C)O)NC(=O)[C@H](CCCNC(=N)N)NC1=O [Example 1121] ({CH2CO}-FYDWL[Bip]V[NMeA][dP]N[Nle]RTCA-NH2; thioether N-14)
430 nM | CC(C)C[C@@H]1NC(=O)[C@H](CCCNC(=N)N)NC(=O)[C@H]2CCCN2C(=O)[C@H](C)N(C)C(=O)[C@H](CCCNC(=N)N)NC(=O)[C@H](Cc2ccc(-c3ccccc3)cc2)NC(=O)[C@H](C(C)C)NC(=O)[C@H](Cc2c[nH]c3ccccc23)NC(=O)[C@H](CC(=O)O)NC(=O)[C@H](Cc2ccc(O)cc2)NC(=O)[C@H](Cc2ccccc2)NC(=O)CSC[C@@H](C(=O)N[C@@H](C)C(N)=O)NC(=O)[C@H](CO)NC(=O)[C@H](C(C)C)NC1=O [Example 1122] ({CH2CO}-FYDWV[Bip]R[NMeA][dP]RLVSCA-NH2; thioether N-14)
